Laboratory results as given in patent publication US20130101628A1 (NORTHWESTERN UNIVERSITY, priority 2011, published 2013).
* marks the point of attachment. Palmitoyl = CCCCCCCCCCCCCCCC(=O)*

Legend:
HUVECs [1] = experiment: HUVEC proliferation (CyQUANT-NF cell number); format: cell-based, human; conditions: 1 μM in EGM, 48 hours; untreated control 100.0%
Experimental: In vitro studies were performed using HUVECs, a primary endothelial cell that is VEGF-responsive and frequently used as a model endothelial cell for angiogenesis studies in vitro [31].
To evaluate proliferation, HUVECs were plated at 5000 per well in a 96 well plate. […] Additionally, unsupplemented growth media was used as a control. After 48 hours, cell number was quantified using CyQUANT-NF (Invitrogen) and a standard fluorescent microplate reader. Cell number is expressed relative to the group treated with unsupplemented growth media.

HUVECs [2] = experiment: HUVEC migration scratch assay; format: cell-based, human; conditions: 1 μM in EBM with 0.5% FBS, 18 hours; untreated 25.2%
Experimental: To evaluate cell migration, endothelial basal media (EBM) without growth factors (Lonza) was supplemented with 0.5% FBS in order to prevent apoptosis but not promote significant migration or proliferation. Cells were grown to confluence in a 12 well plate and a 1 ml pipette tip was used to create a denuded scratch and the surface was washed twice with PBS to remove detached cells. The average scratch width at the initial time-point was […] Markings were placed on the underside of the plate to ensure the same region of the scratch was recorded in each image. […] The total pixel area of the scratch at the initial time-point was recorded using ImageJ analysis software, and the percent migration was determined from the reduction in denuded area at 18 hours.

[3] = system: chicken chorioallantoic membrane (CAM); experiment: Shell-less chicken chorioallantoic membrane (CAM) angiogenesis assay; format: in vivo; conditions: 2 mM in PBS dried on coverslip, three days following treatment; saline 132%
Description: An established assay reflecting in vivo angiogenesis, the chicken chorioallantoic membrane (CAM) assay, was used to evaluate the angiogenic potential of the VEGF-PA of the present examples. This assay utilizes the extra-embryonic allantois, a tissue derived from the mesoderm that develops into a densely vascularized membrane. A common deviation from the traditional assay is to remove the shell and conduct the assay on a shell-less embryo, termed the shell-less CAM assay, as we have performed here. Fertilized white leghorn chicken eggs (Phil's Fresh Eggs, Forreston, Ill.) were received and cultured in a temperature controlled, humidified egg incubator. On embryonic day 3, eggs were cracked within a sterile tissue culture hood into round 100 mm petri dishes. Fertilized embryos were then transferred to a water-jacketed CO2 incubator, set to 37.5° C., 1% CO2 and 100% relative humidity. On embryonic day 10, the material treatment was dissolved at 2 mM in PBS, evaporated onto the surface of a 5 mm round glass cover slip, and placed facing down on top of the CAM (n=16/group). Digital images were captured through the eyepiece of a Nikon stereomicroscope and vessel density was quantified by the number of intersections of vessel structures with the edge of the cover slip and expressed relative to the initial time-point. Images were captured daily, beginning at embryonic day 10 and culminating on embryonic day 13, the standard range over which the CAM assay is performed. Additionally, images were assessed qualitatively for morphological differences in the CAM vasculature including spoking, branching and leakage.

ischemic hind-limb = experiment: Murine hind-limb ischemia (HLI) model; format: in vivo, mice; conditions: for limb motor function score / tissue (limb) salvage score: single i.m. injection 25 μl of 2 mM; for limb motor function score: grade 1-5; for tissue (limb) salvage score: grade 1-6
Experimental: For the HLI procedure, eight week old male FVB wild-type mice (Charles River) were anesthetized by intraperitoneal injection of avertin (125 mg/kg). By means of a dissecting microscope, the femoral nerve was carefully separated from the vessel bundle. The right femoral artery was ligated and excised, including all superficial and deep branches. Critical limb ischemia was immediately verified by laser Doppler imaging (LDPI, MoorLDI-SIM, Moor Instruments, Ltd) to ensure the ratio (ischemic/non-ischemic limb) was ≦0.20. At postoperative day 3, outliers with low ischemia were triaged based on LDPI (ratio ischemic/nonischemic 0.30) as were outliers with extreme ischemia (necrotic demarcation of entire limb), determined by macroscopic evaluation. […] For follow-up, animals underwent reevaluations with LDPI at postoperative day 7, 14, and 28 before animals were sacrificed (CO, asphyxia) for tissue harvest at day 28. At each time-point, tissue perfusion was measured via LDPI, measuring blood flow in both the ischemic and non-ischemic limb and reporting results as the ratio of these two measurements. All LDPI measurements were taken on a 37° C. heating pad to control body temperature. In addition, motor function and tissue damage was semi-quantitatively assessed on post-operative day 7, 14, 21 and 28 by established scoring systems. Tissue damage in the ischemic limb (limb salvage score) was graded as full recovery (grade 6), minor necrosis or nail loss (grade 5), partial toe amputation (grade 4), total toe amputation (grade 3), partial/total foot amputation (grade 2) or partial/total limb amputation (grade 1) (modified from). Limb motor function was graded as unrestricted (grade 5), no active use of toe(s) or spreading (grade 4), restricted foot use (grade 3), no use of foot (grade 2) or no use of limb at all (grade 1) (modified from). Finally, walking capacity was measured via a Rota Rod apparatus. […] The mean of two assessments was used as for failure time for each animal. At day 28, muscle tissue from the ischemic limb was harvested, fixed in methanol, paraffin-embedded, and cross-sectioned (6-μm) for histological immunostaining. Briefly, sections were blocked with 10% donkey serum (30 min, RT). Primary antibodies were diluted in PBS containing BSA, and applied to tissue slices for 2 hrs at 37° C. Sections were stained for CD31, an endothelial-specific marker, using rat anti-CD31 antibodies (BD Pharmingen Inc) and smooth-muscle α-actin (αSMA), a vascular smooth muscle marker, using rabbit-anti-αSMA (Sigma-Aldrich Co.). For immunofluorescent detection, primary antibodies were resolved with Alexa-Fluor-conjugated secondary antibodies (Invitrogen Corporation, Carlsbad, Calif., USA dilution) and nuclei were counterstained with DAPI (Research Organics). Slides were imaged using fluorescent microscopy (Zeiss), and CD31+capillary forms and CD31+/sMA+]mature microvessels/arterioles were quantified in 3 separate high-power fields (20×) from 3 independent sections in each animal (9 images/animal). All error bars indicate the standard error of the mean. Differences between groups were determined using a one-way analysis of variance (ANOVA) with a Bonferroni multiple comparisons post-hoc test using GraphPad InStat v3.0b. […] VEGF-PA or control treatments were administered by an intramuscular injection three days following the induction of critical ischemia by ligation and excision of the right femoral artery and all superficial and deep branches, as described above. Animals were assessed serially throughout the study for motor function and limb salvage and Laser Doppler perfusion imaging (LDPI) was used to assess tissue perfusion. At the end of the study, exercise endurance was recorded on a Rota Rod treadmill and tissue was harvested for immunohistological staining of capillaries to observe effects on the microcirculation.

Substance: CH3(CH2)14C(O)— VVAAKKKGKLTWQELYQLKYKGI-NH2 (Palmitoyl-VVAAKKKGKLTWQELYQLKYKGI-NH2; SMILES CCCCCCCCCCCCCCCC(=O)N[C@H](C(=O)N[C@H](C(=O)N[C@@H](C)C(=O)N[C@@H](C)C(=O)N[C@@H](CCCCN)C(=O)N[C@@H](CCCCN)C(=O)N[C@@H](CCCCN)C(=O)NCC(=O)N[C@@H](CCCCN)C(=O)N[C@@H](CC(C)C)C(=O)N[C@H](C(=O)N[C@@H](Cc1c[nH]c2ccccc12)C(=O)N[C@@H](CCC(N)=O)C(=O)N[C@@H](CCC(=O)O)C(=O)N[C@@H](CC(C)C)C(=O)N[C@@H](Cc1ccc(O)cc1)C(=O)N[C@@H](CCC(N)=O)C(=O)N[C@@H](CC(C)C)C(=O)N[C@@H](CCCCN)C(=O)N[C@@H](Cc1ccc(O)cc1)C(=O)N[C@@H](CCCCN)C(=O)NCC(=O)N[C@H](C(N)=O)[C@@H](C)CC)[C@@H](C)O)C(C)C)C(C)C) [VEGF-PA]
- proliferation (cell number relative to unsupplemented growth media) (HUVECs [1]): 137.0%±2.4%
- reduction in scratch wound size (denuded area) (HUVECs [2]): 68.7%±4.2%
- blood vessels relative to the initial value [3]: 229%±19%
- LDPI perfusion ratio (ischemic/non-ischemic limb) (ischemic hind-limb; 14 days after induction of ischemia): 0.76±0.05
- limb motor function score (ischemic hind-limb; day 21): 3.89±0.12
- tissue (limb) salvage score (ischemic hind-limb; day 21): 4.21±0.21
- LDPI perfusion ratio (ischemic/non-ischemic limb) (ischemic hind-limb; day 28): 0.72±0.05
- Rota Rod walking time prior to failure (ischemic hind-limb; day 28, saline 90.4 seconds): 150.5 ± 9.5 s
- limb motor function score (ischemic hind-limb; day 28): 4.21±0.16
- tissue (limb) salvage score (ischemic hind-limb; day 28): 4.21±0.21
- effect on the number of CD31+/smooth muscle actin+ arterioles (ischemic hind-limb; tissue harvested at day 28): no effect
- number of CD31+ capillaries in ischemic limb muscle (ischemic hind-limb; tissue harvested at day 28, saline 893/mm2): 1582±76 /mm2
